Data published in article PMC5719086, “Effective in vivo gene delivery with reduced toxicity, achieved by charge and fatty acid -modified cell penetrating peptide” (Scientific Reports, 2017).
Where two headings read alike, the source gives them in different places. Square brackets hold non-standard residues; d marks the D form. Peptide text beside a SMILES is read from it. * marks the point of attachment. Docosanoyl = CCCCCCCCCCCCCCCCCCCCCC(=O)*; Stearoyl = CCCCCCCCCCCCCCCCCC(=O)*; Decanoyl = CCCCCCCCCC(=O)*; Orn = NCCC[C@H](N)C(=O)O

Legend:
[1] = Complex stability in FBS, gel shift assay; conditions: 37 °C; for pDNA migration from complexes after 48 h in serum (in words): serum and/or triton + heparin dissociation
Method: Then the samples were mixed with the DNA loading dye and electrophoresed exactly as stated above in the Gel shift assay description, using 0.1 µg of pDNA per lane. ZipRuler Express DNA Ladder 2 (ThermoFisher Scientific) was added to each gel.
The stability of the complexes after incubation in FBS, visualized by gel shift assay.

proteinase K = target: T1, proteinase K (Parengyodontium album, UniProt P06873); assay: Proteinase K treatment of CPP/pDNA complexes; type: in vitro ADME; conditions: 26 °C; for stability of the complexes against proteinase K (in words): CPP/pDNA complexes at N/P2, accessible pDNA over time by intercalating dye; for Proteinase K: t1/2 (min) of the complexed pDNA (95%CI): CPP/pDNA complexes at N/P2 in MQ, proteinase K ~2.4 U per well, accessible pDNA by PicoGreen fluorescence, normalized to free pDNA
T1 construct: purchased Thermo Scientific
Method: For the proteinase K treatment, 30 μl of pre-formed CPP/pDNA complex solution (0.3, 0.2, 0.1 and 0.05 µg of pDNA per sample) or CPP in MQ was transferred to a black 96-well plate and 90 µl of MQ was added. After a short period of mixing, fluorescent DNA intercalating dye dilution was added (Quant-iT™ PicoGreen®, ThermoFisher Scientific) and incubated for 5 minutes at room temperature. The fluorescence was measured (Synergy MX, BioTek; λex 492 and λem 535) to quantify the initial accessibility of pDNA. Thereafter 10 μl of Proteinase K (Thermo Scientific) was added with the final enzyme concentration ~2.4 U per well. Fluorescence was measured over an indicated period at 26 °C. The readings were normalized against the fluorescence of free pDNA.

mouse RBC = assay: Hemolysis assay (activity towards cell membranes); type: cell-based; conditions: 1 h 37 °C, triplicates
Method: The ability of the peptides to lyse the red blood cells (RBC) in PBS was used as a measure of membrane activity. To obtain fresh mouse RBC, blood was collected from the saphenous vein using sodium-heparinized (80 iu/ml ± 30%) blood collection capillaries (Marienfeld, Germany) and transferred to heparinized blood collecting tubes (Sarstedt, Germany). To isolate RBCs, the whole blood was centrifuged for 15 minutes at 300 × g, followed by removal of the plasma. The RBCs were then washed three times with 1 × PBS (RBC pelleting with 15 minutes at 300 × g). The resulting RBCs were then resuspended in PBS at 4% (v/v).
For the analysis, 200 μl of RBC suspension was added to 200 μl of peptide solution or peptide/pDNA complexes in 5% glucose (final RBC concentration 2%) and gently vortexed. The peptide/pDNA complexes were prepared using a fixed 1 μg of pDNA and varying amount of the peptide. Following this, samples were incubated for 1 hour at 37 °C with gentle stirring. After incubation, the RBCs were pelleted (15 minutes at 300 × g) and the amount of hemoglobin in the supernatant was assessed by measuring the absorbance at 540 nm using a 96-well microplate reader. The experiments were conducted in triplicates.
100% of hemolysis was defined as the RBCs treated with 0.1% Triton-X100 in PBS and 0% was obtained with cells incubated in 5% glucose solution. % of hemolysis was calculated by the formula: % Hemolysis = [(Asample − Aglucose)/Atriton − Aglucose)] × 100.

[2] = naked peptide in 5% glucose, mouse RBC 2% final in PBS, hemoglobin absorbance 540 nm, 100% = 0.1% Triton X-100, read-out: EC50 (μM) of CPP (membrane activity, concentration required to lyse 50% of the cells)
[3] = peptide/pDNA complexes, fixed 1 μg pDNA and varying peptide, mouse RBC 2% final, absorbance 540 nm, read-out: EC50 (μM) of CPP/pDNA (membrane activity)

T1 sequence (P06873 106-384): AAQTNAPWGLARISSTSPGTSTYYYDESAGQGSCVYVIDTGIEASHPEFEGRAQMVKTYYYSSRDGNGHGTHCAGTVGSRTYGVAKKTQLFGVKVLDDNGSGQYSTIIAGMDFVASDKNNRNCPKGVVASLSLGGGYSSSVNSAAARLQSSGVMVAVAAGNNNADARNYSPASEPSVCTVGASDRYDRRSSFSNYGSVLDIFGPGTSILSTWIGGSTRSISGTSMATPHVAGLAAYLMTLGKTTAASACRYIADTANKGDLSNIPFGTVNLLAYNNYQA

SMILES	time to pDNA degradation (DNA smear) in serum ([1]; 50% FBS, EtBr)	onset of DNA migration from complexes in serum ([1]; complexes N/P2 (jetPEI N/P8) in 50% FBS, EtBr)	stability of the complexes against proteinase K (in words) (proteinase K)	Proteinase K: t1/2 (min) of the complexed pDNA (95%CI) (proteinase K)	EC50 (mouse RBC; [2])	EC50 (mouse RBC; [3])	pDNA migration from complexes after 48 h in serum (in words) ([1]; 50% FBS)
CC(C)C[C@H](NC(=O)[C@H](CC(C)C)NC(=O)[C@H](CCCN)NC(=O)[C@H](CCCN)NC(=O)[C@H](CC(C)C)NC(=O)[C@H](C)NC(=O)[C@H](C)NC(=O)[C@H](C)NC(=O)[C@H](C)NC(=O)[C@H](CC(C)C)NC(=O)[C@H](CCCN)NC(=O)[C@H](CCCN)NC(=O)[C@H](CC(C)C)NC(=O)[C@H](CC(C)C)NC(=O)[C@H](CCCCN)NC(=O)CNC(=O)[C@H](CC(C)C)NC(=O)[C@H](CC(C)C)NC(=O)[C@H](Cc1ccc(O)cc1)NC(=O)CNC(=O)[C@H](C)N)C(N)=O [C0-PF14] (H-AGYLLGKLL[Orn][Orn]LAAAAL[Orn][Orn]LL-NH2)	about 24 h	≤ 0.5 h	clearly a favorable substrate to the proteinase	0.5 (−0.8 ± 1.5) min	5.36 µM	7.09 µM	–
CCCCCCCCCC(=O)N[C@@H](C)C(=O)NCC(=O)N[C@@H](Cc1ccc(O)cc1)C(=O)N[C@@H](CC(C)C)C(=O)N[C@@H](CC(C)C)C(=O)NCC(=O)N[C@@H](CCCCN)C(=O)N[C@@H](CC(C)C)C(=O)N[C@@H](CC(C)C)C(=O)N[C@@H](CCCN)C(=O)N[C@@H](CCCN)C(=O)N[C@@H](CC(C)C)C(=O)N[C@@H](C)C(=O)N[C@@H](C)C(=O)N[C@@H](C)C(=O)N[C@@H](C)C(=O)N[C@@H](CC(C)C)C(=O)N[C@@H](CCCN)C(=O)N[C@@H](CCCN)C(=O)N[C@@H](CC(C)C)C(=O)N[C@@H](CC(C)C)C(N)=O [C10-PF14] (Decanoyl-AGYLLGKLL[Orn][Orn]LAAAAL[Orn][Orn]LL-NH2)	–	–	–	26.7 (20.1 ± 32.5) min	0.36 µM	0.86 µM	less migration and less degradation
CCCCCCCCCCCCCCCCCCCCCC(=O)N[C@@H](C)C(=O)NCC(=O)N[C@@H](Cc1ccc(O)cc1)C(=O)N[C@@H](CC(C)C)C(=O)N[C@@H](CC(C)C)C(=O)NCC(=O)N[C@@H](CCCCN)C(=O)N[C@@H](CC(C)C)C(=O)N[C@@H](CC(C)C)C(=O)N[C@@H](CCCN)C(=O)N[C@@H](CCCN)C(=O)N[C@@H](CC(C)C)C(=O)N[C@@H](C)C(=O)N[C@@H](CCCN)C(=O)N[C@@H](CCCN)C(=O)N[C@@H](C)C(=O)N[C@@H](CC(C)C)C(=O)N[C@@H](CCCN)C(=O)N[C@@H](CCCN)C(=O)N[C@@H](CC(C)C)C(=O)N[C@@H](CC(C)C)C(N)=O [C22-PF14-O] (Docosanoyl-AGYLLGKLL[Orn][Orn]LA[Orn][Orn]AL[Orn][Orn]LL-NH2)	–	–	virtually inaccessible to the enzyme	–	–	–	migration of pDNA from some of the complexes could be observed
CCCCCCCCCCCCCCCCCCCCCC(=O)N[C@@H](C)C(=O)NCC(=O)N[C@@H](Cc1ccc(O)cc1)C(=O)N[C@@H](CC(C)C)C(=O)N[C@@H](CC(C)C)C(=O)NCC(=O)N[C@@H](CCCCN)C(=O)N[C@@H](CC(C)C)C(=O)N[C@@H](CC(C)C)C(=O)N[C@@H](CCCN)C(=O)N[C@@H](CCCN)C(=O)N[C@@H](CC(C)C)C(=O)N[C@@H](C)C(=O)N[C@@H](C)C(=O)N[C@@H](C)C(=O)N[C@@H](C)C(=O)N[C@@H](CC(C)C)C(=O)N[C@@H](CCCN)C(=O)N[C@@H](CCCN)C(=O)N[C@@H](CC(C)C)C(=O)N[C@@H](CC(C)C)C(N)=O [C22-PF14] (Docosanoyl-AGYLLGKLL[Orn][Orn]LAAAAL[Orn][Orn]LL-NH2)	–	–	–	162.7 (159.6 ± 166.7) min	0.64 µM	1.47 µM	less migration and less degradation
CCCCCCCCCCCCCCCCCC(=O)N[C@@H](C)C(=O)NCC(=O)N[C@@H](Cc1ccc(O)cc1)C(=O)N[C@@H](CC(C)C)C(=O)N[C@@H](CC(C)C)C(=O)NCC(=O)N[C@@H](CCCCN)C(=O)N[C@@H](CC(C)C)C(=O)N[C@@H](CC(C)C)C(=O)N[C@@H](CCC(=O)O)C(=O)N[C@@H](CCCN)C(=O)N[C@@H](CC(C)C)C(=O)N[C@@H](C)C(=O)N[C@@H](C)C(=O)N[C@@H](C)C(=O)N[C@@H](C)C(=O)N[C@@H](CC(C)C)C(=O)N[C@@H](CCCN)C(=O)N[C@@H](CCCN)C(=O)N[C@@H](CC(C)C)C(=O)N[C@@H](CC(C)C)C(N)=O [PF14-E] (Stearoyl-AGYLLGKLLE[Orn]LAAAAL[Orn][Orn]LL-NH2)	–	–	–	16.7 (10.5 ± 21.8) min	0.67 µM	2.36 µM	–
CCCCCCCCCCCCCCCCCC(=O)N[C@@H](C)C(=O)NCC(=O)N[C@@H](Cc1ccc(O)cc1)C(=O)N[C@@H](CC(C)C)C(=O)N[C@@H](CC(C)C)C(=O)NCC(=O)N[C@@H](CCCCN)C(=O)N[C@@H](CC(C)C)C(=O)N[C@@H](CC(C)C)C(=O)N[C@@H](CCCN)C(=O)N[C@@H](CCCN)C(=O)N[C@@H](CC(C)C)C(=O)N[C@@H](C)C(=O)N[C@@H](CCCN)C(=O)N[C@@H](CCCN)C(=O)N[C@@H](C)C(=O)N[C@@H](CC(C)C)C(=O)N[C@@H](CCCN)C(=O)N[C@@H](CCCN)C(=O)N[C@@H](CC(C)C)C(=O)N[C@@H](CC(C)C)C(N)=O [PF14-O] (Stearoyl-AGYLLGKLL[Orn][Orn]LA[Orn][Orn]AL[Orn][Orn]LL-NH2)	–	–	–	94.2 (90.7 ± 97.4) min	0.6 µM	1.17 µM	migration of pDNA from some of the complexes could be observed
